Data: patent US20180185408A1, “ANTIFUNGAL NYLON-3 POLYMERS AND COMBINATION THERAPY USING THEM TO TREAT FUNGAL INFECTIONS” (priority 2016, published 2018)
Where two headings read alike, the source gives them in different places. Marks after values point to notes of the source that are not given here.

What was measured:
[1] = system: human red blood cells (hRBCs); experiment: Hemolysis assay; conditions: 1 hour
Candida albicans = experiment: Checkerboard microdilution synergy (FIC); type: cell-based; conditions: for MIC: Candida albicans; for MIC Combined: FLC and MM:TM in combination
[2] = MM:TM (40:60) with Fluconazole, isolate K1 (Fluconazole Resistant), […]10^5 cells/mL, 30° C.

C[C@@H]1[C@H](O)[C@@H](C)/C=C/C=C/C=C/C=C/C=C/C=C/C=C/[C@H](O[C@@H]2O[C@H](C)[C@@H](O)[C@H](N)[C@@H]2O)C[C@@H]2O[C@](O)(C[C@@H](O)C[C@@H](O)[C@H](O)CC[C@@H](O)C[C@@H](O)CC(=O)O[C@H]1C)C[C@H](O)[C@H]2C(=O)O [AMB, amphotericin B]
concentration causing 10% hemolysis (HC10) [1]: 27 µM
concentration causing 50% lysis of hRBCs (HC50) [1]: 54 µM

OC(Cn1cncn1)(Cn1cncn1)c1ccc(F)cc1F [FLC, fluconazole]
MIC (Candida albicans; 48 h, K1, FLC and MM:TM, single agent, […]10^5 cells/mL, 30°C, OD600 48 h, read-out: MIC Alone): > 164 µM
MIC (Candida albicans; 48 h, K1, Fluconazole and MM:TM, […]10^5 cells/mL, 30°C, OD600 48 h, Avg., read-out: MIC alone): > 163 µM
MIC (Candida albicans; 48 h, K1, Fluconazole and MM:TM, […]10^5 cells/mL, 30°C, OD600 48 h, trial 1, read-out: MIC alone): > 81.6 µM
MIC (Candida albicans; 48 h, K1, Fluconazole and MM:TM, […]10^5 cells/mL, 30°C, OD600 48 h, trial 2, read-out: MIC alone): > 163 µM
MIC (Candida albicans; 48 h, K1, Fluconazole and MM:TM, […]10^5 cells/mL, 30°C, OD600 48 h, trial 3, read-out: MIC alone): > 81.6 µM
MIC (Candida albicans; 48 h, K1, fluconazole and MM:TM, […]10^5 cells/mL, 30°C, OD600 48 h, Avg., read-out: MIC alone): > 50 µg/mL
MIC (Candida albicans; 48 h, K1, fluconazole and MM:TM, […]10^5 cells/mL, 30°C, OD600 48 h, trial 1, read-out: MIC alone): > 25 µg/mL
MIC (Candida albicans; 48 h, K1, fluconazole and MM:TM, […]10^5 cells/mL, 30°C, OD600 48 h, trial 2, read-out: MIC alone): > 50 µg/mL
MIC (Candida albicans; 48 h, K1, fluconazole and MM:TM, […]10^5 cells/mL, 30°C, OD600 48 h, trial 3, read-out: MIC alone): > 25 µg/mL
MIC (Candida albicans; [2]): > 50 µg/mL
MIC (Candida albicans; NM20 with Fluconazole, C. albicans K1, […] 10^5 cells/mL): > 25 µg/mL
MIC (Candida albicans; SC5314, 48 h, SC5314, FLC and MM:TM, single agent, […]10^5 cells/mL, 30°C, OD600 48 h, read-out: MIC Alone): < 1 µM
MIC (Candida albicans; SC5314, 48 h, SC5314, Fluconazole and MM:TM, […]10^5 cells/mL, 30°C, OD600 48 h, Avg., read-out: MIC alone): < 1 µM
MIC (Candida albicans; SC5314, 48 h, SC5314, Fluconazole and MM:TM, […]10^5 cells/mL, 30°C, OD600 48 h, trial 1, read-out: MIC alone): < 0.7 µM
MIC (Candida albicans; SC5314, 48 h, SC5314, Fluconazole and MM:TM, […]10^5 cells/mL, 30°C, OD600 48 h, trial 2, read-out: MIC alone): < 2.6 µM
MIC (Candida albicans; SC5314, 48 h, SC5314, Fluconazole and MM:TM, […]10^5 cells/mL, 30°C, OD600 48 h, trial 3, read-out: MIC alone): < 1.3 µM
MIC (Candida albicans; SC5314, 48 h, SC5314, fluconazole and MM:TM, […]10^5 cells/mL, 30°C, OD600 48 h, Avg., read-out: MIC alone): < 0.3 µg/mL
MIC (Candida albicans; SC5314, 48 h, SC5314, fluconazole and MM:TM, […]10^5 cells/mL, 30°C, OD600 48 h, trial 1, read-out: MIC alone): < 0.2 µg/mL
MIC (Candida albicans; SC5314, 48 h, SC5314, fluconazole and MM:TM, […]10^5 cells/mL, 30°C, OD600 48 h, trial 2, read-out: MIC alone): < 0.8 µg/mL
MIC (Candida albicans; SC5314, 48 h, SC5314, fluconazole and MM:TM, […]10^5 cells/mL, 30°C, OD600 48 h, trial 3, read-out: MIC alone): < 0.4 µg/mL
MIC (Candida albicans; SC5314, NM20 with Fluconazole, C. albicans SC5314, […] 10^5 cells/mL): > 25 µg/mL
MIC (Candida albicans; SC5314, Table 43, MM:TM with Fluconazole, isolate SC5314, […] 10^5 cells/mL): < 0.3 µg/mL
MIC (Candida albicans; Table 43, MM:TM with Fluconazole, isolate K1, […] 10^5 cells/mL): > 50 µg/mL
MIC Combined (Candida albicans; K1, […]10^5 cells/mL, 30°C, OD600 48 h): <1.3^i μM
FIC (Candida albicans; K1, Fluconazole and MM:TM, Avg., Table 13): 0.002
MIC combo (Candida albicans; K1, Fluconazole and MM:TM, […]10^5 cells/mL, 30°C, OD600 48 h, Avg.): <1.3 µM
MIC combo (Candida albicans; K1, Fluconazole and MM:TM, […]10^5 cells/mL, 30°C, OD600 48 h, trial 1): <1.3 µM
MIC combo (Candida albicans; K1, Fluconazole and MM:TM, […]10^5 cells/mL, 30°C, OD600 48 h, trial 2): <2.6 µM
MIC combo (Candida albicans; K1, Fluconazole and MM:TM, […]10^5 cells/mL, 30°C, OD600 48 h, trial 3): <1.3 µM
FIC (Candida albicans; K1, Fluconazole and MM:TM, trial 1, Table 13): 0.004
FIC (Candida albicans; K1, Fluconazole and MM:TM, trial 2, Table 13): 0.004
FIC (Candida albicans; K1, Fluconazole and MM:TM, trial 3, Table 13): 0.004
FIC (Candida albicans; K1, fluconazole and MM:TM, Avg.): 0.002
MIC combo (Candida albicans; K1, fluconazole and MM:TM, […]10^5 cells/mL, 30°C, OD600 48 h, Avg.): <0.4 µg/mL
MIC combo (Candida albicans; K1, fluconazole and MM:TM, […]10^5 cells/mL, 30°C, OD600 48 h, trial 1): <0.4 µg/mL
MIC combo (Candida albicans; K1, fluconazole and MM:TM, […]10^5 cells/mL, 30°C, OD600 48 h, trial 2): <0.8 µg/mL
MIC combo (Candida albicans; K1, fluconazole and MM:TM, […]10^5 cells/mL, 30°C, OD600 48 h, trial 3): <0.4 µg/mL
FIC (Candida albicans; K1, fluconazole and MM:TM, trial 1): 0.004
FIC (Candida albicans; K1, fluconazole and MM:TM, trial 2): 0.004
FIC (Candida albicans; K1, fluconazole and MM:TM, trial 3): 0.004
improvement in antifungal activity (fluconazole MIC in combination with copolymer) (Candida albicans; K1 strain): ≥ 100 fold
FICazole (Candida albicans; [2]): 0.004
FICazole (Candida albicans; MM:TM (40:60) with Fluconazole, isolate SC5314 (Senstive), […]10^5 cells/mL, 30° C.): 1
MIC Combined (Candida albicans; SC5314, […]10^5 cells/mL, 30°C, OD600 48 h): <1.0 µM
FIC (Candida albicans; SC5314, Fluconazole and MM:TM, Avg., Table 13): 1
MIC combo (Candida albicans; SC5314, Fluconazole and MM:TM, […]10^5 cells/mL, 30°C, OD600 48 h, Avg.): <1.0 µM
MIC combo (Candida albicans; SC5314, Fluconazole and MM:TM, […]10^5 cells/mL, 30°C, OD600 48 h, trial 1): <0.7 µM
MIC combo (Candida albicans; SC5314, Fluconazole and MM:TM, […]10^5 cells/mL, 30°C, OD600 48 h, trial 2): <2.6 µM
MIC combo (Candida albicans; SC5314, Fluconazole and MM:TM, […]10^5 cells/mL, 30°C, OD600 48 h, trial 3): <1.3 µM
FIC (Candida albicans; SC5314, Fluconazole and MM:TM, trial 1, Table 13): 1
FIC (Candida albicans; SC5314, Fluconazole and MM:TM, trial 2, Table 13): 1
FIC (Candida albicans; SC5314, Fluconazole and MM:TM, trial 3, Table 13): 1
FIC (Candida albicans; SC5314, fluconazole and MM:TM, Avg.): 1
MIC combo (Candida albicans; SC5314, fluconazole and MM:TM, […]10^5 cells/mL, 30°C, OD600 48 h, Avg.): <0.3 µg/mL
MIC combo (Candida albicans; SC5314, fluconazole and MM:TM, […]10^5 cells/mL, 30°C, OD600 48 h, trial 1): <0.2 µg/mL
MIC combo (Candida albicans; SC5314, fluconazole and MM:TM, […]10^5 cells/mL, 30°C, OD600 48 h, trial 2): <0.8 µg/mL
MIC combo (Candida albicans; SC5314, fluconazole and MM:TM, […]10^5 cells/mL, 30°C, OD600 48 h, trial 3): <0.4 µg/mL
FIC (Candida albicans; SC5314, fluconazole and MM:TM, trial 1): 1
FIC (Candida albicans; SC5314, fluconazole and MM:TM, trial 2): 1
FIC (Candida albicans; SC5314, fluconazole and MM:TM, trial 3): 1
